Reference: patent US9409961B2, “Cell penetrating peptides to target EIF4E” (Hoffmann-La Roche Inc., priority 2012, dated 2016)

Columns and labels:
[1] = stability in human plasma; type: in vitro ADME; settings: pH 7.4, Conc. 10 uM, 37° C.
Method: (§1) The following study was conducted to assess the stability of the compound of Examples 2-4 (SEQ ID NOS: 9, 10 and 11) in Hannover Wistar rat and human plasma after 4 and 24 hours. Approximately, 2.0 mg of the compound of Examples 2-4 (SEQ ID NOS 9, 10 and 11) was weighed out and placed in a 4 mL amber vial. To this was added 1.0 mL DMSO. The vial was carefully vortexed to produce a solution of approximately 600 μM.
(§2) Hannover Wistar rat plasma and human plasma (anti-coagulant sodium EDTA) were pre-warmed to 37° C. for 30 minutes in a water bath. The pH of both plasmas was adjusted to pH7.4. 1.5 mL microcentrifuge vials were used.
(§3) The stock solution of the compound of Examples 2-4 was diluted into rat or human plasma to a final concentration of 10 μM. The two vials were gently vortexed ensuring proper mixing.
(§4) Six new vials were labeled as follows: rat T0, rat T4, rat T24, human T0, human T4, human T24. To each of these vials, 50 μL of treated plasma was added. The T4 and T24 vials were capped and placed in a 37° C. incubator for 4 and 24 hours, respectively.
(§5) To each of the two T0 vials, 50 μL of Sorensen buffer and 200 μL 1.0% acetic acid in acetonitrile were added. The T0 vials were then capped, vortexed and centrifuged at 10000×g for 10 minutes. Upon completion of centrifugation, 100 μL of the supernatant of each vial was added to a separate well in a 96-well injection block. 200 µL of 0.1% acetic acid in Milli-Q® water (Millipore) was then added to each well.
(§6) The above procedure as written with respect to the T0 vials was repeated for the two T4 vials at the 4 hour time point and the T24 vials at the 24 hour time point. With each time point a fresh T0 sample was prepared, as described above, to ensure there was no sample degradation.
(§7) All samples were analyzed by LC/MS/MS. The resulting chromatographs were processed to obtain peaks areas for each sample. The percent of compound remaining at each time point as compared with the amount present in the comparison T0 sample was calculated.

[2] = molecular target: T1, human eIF4E (Homo sapiens, UniProt P06730); test: biochemical assay of peptide binding to human eIF4E (displacement of biotin labeled 4G2 peptide)
T1 construct: made in house
T1 sequence (P06730 with tags, fused parts or gaps): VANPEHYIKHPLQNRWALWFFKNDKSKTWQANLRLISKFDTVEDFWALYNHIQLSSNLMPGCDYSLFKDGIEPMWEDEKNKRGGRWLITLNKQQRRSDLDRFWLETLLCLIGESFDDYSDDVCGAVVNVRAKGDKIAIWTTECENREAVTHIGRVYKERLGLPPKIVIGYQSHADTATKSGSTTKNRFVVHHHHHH
Method: A biochemical assay was run to test peptide binding to human eIF4E.
Human eIF4E (aa 28-217, SEQ ID NO: 87) with a C-terminal His tag (HH-eIF4E, SEQ ID NO: 88) was expressed in E. coli in inclusion bodies. The protein was solubilized with 8 M urea and purified under denaturing conditions using nickel-charged HisTrap HP columns (GE Healthcare). The protein was refolded by diluting to approximately 0.25 mg/mL with 6 M urea, 20 mM Hepes pH 7.0, 500 mM NaCl, 1 mM DTT, 1 mM EDTA, and 0.5 M arginine.HCl, and then dialyzing overnight into the same buffer without the urea. The protein was further dialyzed into 20 mM Hepes pH 6.5, 50 mM NaCl, 1 mM EDTA, and 1 mM DTT, filtered, and then concentrated using Hitrap SP sepharose FF columns (GE Healthcare). The protein was dialyzed into 20 mM Hepes pH 7.0, 500 mM NaCl, 5 mM DTT, and 10% glycerol and stored at −80° C. until use.
Test peptides (1.6 mM stock in DMSO) were diluted 3 fold in series in DMSO and solutions were diluted 4 fold in Assay Buffer (50 mM NaPi, pH 6.5, 50 mM KCl, 1 mM DTT, 0.004% NP40 and 0.5 mg/ml gammaglobulin). Six microliters per well of diluted peptide solutions and 12 microliters per well of 187.5 nM HH-eIF4E in Assay Buffer were added to 384-well polypropylene microplates (Matrix, Thermal Scientific). Twelve microliters per well of 187.5 nM biotin labeled 4G2 peptide (Ac-[…]Aha-Bio)-NH2 (SEQ ID NO: 91) 1:2 TFA) in Assay Buffer was added. The samples were incubated at room temperature for 20 minutes.
Six microliters per well of 4.8 nM Eu-streptavidin (Columbia Biosciences) and 48 nM Allophycocyanin-anti His antibody (Columbia Biosciences) in Assay Buffer (without DTT) were then added and the samples were incubated at room temperature for 30 min. Assay signals were monitored by reading emission fluorescence at 665 nm on an Envision Reader (PerkinElmer Life and Analytical Sciences). IC50 values were calculated using Condoseo software (Genedata AG, Basel, Switzerland).

[3] = tested on: downstream target gene expression; test: downstream target gene expression and apoptosis (FIG. 2); type: cell-based
[4] = stability in rat plasma; type: in vitro ADME; settings: Hannover Wistar, pH 7.4, Conc. 10 uM, 37° C.
Method: as §1, §2, §3, §4, §5, §6, §7

[5] = Binding affinities expressed as IC50, HH-eIF4E, biotin labeled 4G2 peptide
[6] = IC50 (μM), Table 2a, cell penetrating peptides with the Y----LL-F and YWLLALFVY motifs
[7] = IC50 (μM), Table 2, cell-penetrating peptides with the Y----LL-F motif

Work on “Ac-MAKLKYWLLALFVYMWTDLLLFKKRPKP-NH2 [SEQ ID NO: 9]” yielded a remaining at 4 h, 10 µM [1] of 94.9%, a remaining at 24 h, 10 µM [1] of 76.2% and an IC50 [2, 5] of 4.4 µM. For the same substance, the apoptosis [3] was “induce apoptosis”, the “downstream target gene expression” value [3] was “inhibit downstream target gene expression” and the remaining at 4 h, 10 µM [4] was 91.7%. For the same substance, the remaining at 24 h, 10 µM [4] was 18.2%.
With “Ac-MANLAYWLLALFVYMWTDLRLFKKRPKP-NH2 [SEQ ID NO: 10]” the remaining at 4 h, 10 µM [1] was 99.1%, the remaining at 24 h, 10 µM [1] was 45.2% and the IC50 [2, 5] was 6.61 µM. The IC50 [2, 6] was 1.7 µM, the apoptosis [3] was “induce apoptosis” and the “downstream target gene expression” value [3] was “inhibit downstream target gene expression”. The remaining at 4 h, 10 µM [4] was 102% and the remaining at 24 h, 10 µM [4] was 23.7%.
Substance “Ac-MYKSKILLWFLVLFVAMWSDVALAKKRPKP-NH2 [SEQ ID NO: 19]” has an IC50 [2, 7] of 7.21 µM.
Work on “Ac-MYKSKILLWFLVLFVAMWSDVGLCKKRPKP-NH2 [SEQ ID NO: 14]” yielded an IC50 [2, 7] of 3.62 µM.
Work on “Ac-NLAYWLLALFVYMWTDLRLFKKRPKP-NH2 [SEQ ID NO: 35]” yielded an IC50 [2, 6] of 5.04 µM.
In the case of “Ac-WLLALFVYMWTDLRLFKKRPKP-NH2 [SEQ ID NO: 50]”, the IC50 ([2]; IC50 (μM), Table 3, cell-penetrating peptides without the Y----LL-F motif) is reported as 2.36 µM.
For “Ac-YWLLALFVYMWTDLRLFKKRPKP-NH2 [SEQ ID NO: 37]”, the IC50 [2, 6] was 2.9 µM.
